In patent US20240246964A1 (Arbutus Biopharma Corporation, priority 2021, published 2024) one finds EC50 and IC50 data, which are given here for 20 compounds.

The target in one assay is human PD-L1 (Homo sapiens (Human), UniProt Q9NZQ7). Kind of assay: T cell activation luciferase reporter cell culture system (T Cell Activation Assay). The assay is classed as cell-based. The conditions noted are these: luciferase reporter assay; PD-L1 aAPC/CHO-K1 cells with PD-1 effector Jurkat T cells.
The target of assay [1] is PD-L1 His protein / PD-1 Fc protein (Homo sapiens (Human), UniProt Q9NZQ7). Kind of assay: HTRF Assay (PD-1/PD-L1 interaction). The assay is classed as binding. The conditions noted are these: PD-L1 His 6 nM, PD-1 Fc 6 nM. Background: TR-FRET usually uses a lanthanide donor and a delayed reading to cut background.
Sequence of PD-L1 His protein / PD-1 Fc protein (Q9NZQ7 19-238): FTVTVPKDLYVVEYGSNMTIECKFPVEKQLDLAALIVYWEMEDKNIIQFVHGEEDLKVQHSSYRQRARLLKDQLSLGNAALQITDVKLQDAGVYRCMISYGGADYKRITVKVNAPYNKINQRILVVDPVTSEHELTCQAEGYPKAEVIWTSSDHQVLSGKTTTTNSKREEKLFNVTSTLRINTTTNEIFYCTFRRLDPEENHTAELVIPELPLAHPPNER

Sequence of human PD-L1 (Q9NZQ7 19-290): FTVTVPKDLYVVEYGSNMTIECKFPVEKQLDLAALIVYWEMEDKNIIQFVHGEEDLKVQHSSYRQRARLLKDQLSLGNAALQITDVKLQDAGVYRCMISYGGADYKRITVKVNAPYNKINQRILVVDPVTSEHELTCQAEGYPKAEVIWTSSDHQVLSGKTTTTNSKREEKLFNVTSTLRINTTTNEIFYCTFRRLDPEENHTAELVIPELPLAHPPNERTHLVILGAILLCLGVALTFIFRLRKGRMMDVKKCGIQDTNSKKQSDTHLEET

Compound `COc1cc(-c2nccc(-c3cccc(-c4ccc5c(CNC6CCOCC6)cn(C)c5n4)c3Cl)c2Cl)ccc1CNC1CCN(C(C)=O)CC1` [Example 556, 1-(4-((4-(3-Chloro-4-(2-chloro-3-(1-methyl-3-(((tetrahydro-2H-pyran-4-yl)amino)methyl)-1H-pyrrolo[2,3-b]pyridin-6-yl)phenyl)pyridin-2-yl)-2-methoxybenzyl)amino)piperidin-1-yl)ethan-1-one] registered an EC50 on human PD-L1 of 222 nM. This compound also showed a half-maximal inhibitory concentration (IC50) in assay [1] of 1.22 nM.

`CNCc1ccc(C(=O)Nc2cccc(-c3ccnc(-c4ccc(CNC[C@@H]5CCC(=O)N5)c(OC)c4)c3Cl)c2C)nc1` [Example 756, (S)—N-(3-(3-chloro-2-(3-methoxy-4-((((5-oxopyrrolidin-2-yl)methyl)amino)methyl)phenyl)pyridin-4-yl)-2-methylphenyl)-5-((methylamino)methyl)picolinamide] registered a 50% effective concentration (EC50) on human PD-L1 of 63.8 nM. Also, the midpoint of inhibition in assay [1], the IC50, lay at 0.2 nM.

In the case of `COc1cc(-c2nccc(-c3cccc(-c4ccc5c(CN6CC7(CNC(=O)C7)C6)cn(C)c5n4)c3Cl)c2Cl)ccc1CNC[C@@H]1CCC(=O)N1` [Compound 219, (S)-2-((6-(2-chloro-3-(3-chloro-2-(3-methoxy-4-((((5-oxopyrrolidin-2-yl)methyl)amino)methyl)phenyl)pyridin-4-yl)phenyl)-1-methyl-1H-pyrrolo[2,3-b]pyridin-3-yl)methyl)-2,6-diazaspiro[3.4]octan-7-one], the concentration for a half-maximal effect (EC50) at human PD-L1 came to 22.2 nM. In assay [1], half-maximal inhibition (IC50) required 2.73 nM.

`COc1cc(-c2nccc(-c3ccnc(-c4cnc5c(CNC[C@@H]6CCC(=O)N6)cn(C)c5c4)c3Cl)c2Cl)ccc1CNC[C@@H]1CCC(=O)N1` [Compound 16, (S)-5-(((4-(3,3′-dichloro-2′-(1-methyl-3-(((((S)-5-oxopyrrolidin-2-yl)methyl)amino)methyl)-1H-pyrrolo[3,2-b]pyridin-6-yl)-[4,4′-bipyridin]-2-yl)-2-methoxybenzyl)amino)methyl)pyrrolidin-2-one] showed a 50% effective concentration (EC50) at human PD-L1 of 355 nM. For the same compound, the IC50 in assay [1] worked out at 1 nM.

Compound `COc1nc(-c2cccc(-c3ccnc(-c4ccc5c(c4)OCCN(C[C@H](C)O)C5)c3Cl)c2Cl)ccc1CNC[C@@H]1CCC(=O)N1` [Compound 25, (S)-5-((((6-(2-chloro-3-(3-chloro-2-(4-((S)-2-hydroxypropyl)-2,3,4,5-tetrahydrobenzo[f][1,4]oxazepin-8-yl)pyridin-4-yl)phenyl)-2-methoxypyridin-3-yl)methyl)amino)methyl)pyrrolidin-2-one] had a concentration for a half-maximal effect (EC50) at human PD-L1 of 334 nM. In assay [1], this compound showed a 50% inhibitory concentration (IC50) of 0.5 nM.

In turn, `COc1nc(-c2cccc(-c3nccc(-c4ccc(CNC5CCOCC5)c(OC)n4)c3Cl)c2Cl)ccc1CNC1CCOCC1` [Compound 574, N-((3′-Chloro-2′-(2-chloro-3-(6-methoxy-5-(((tetrahydro-2H-pyran-4-yl)amino)methyl)pyridin-2-yl)phenyl)-6-methoxy-[2,4′-bipyridin]-5-yl)methyl)tetrahydro-2H-pyran-4-amine] yielded an EC50 on human PD-L1 of 14 nM. Further, the half-maximal inhibitory concentration (IC50) in assay [1] turned out to be 0.04 nM.

As to `COc1cc(-c2nccc(-c3cccc(-c4ccc5c(CNC6CCN(C(C)=O)CC6)cn(C)c5n4)c3Cl)c2Cl)ccc1CNCCO` [Compound 560, 1-(4-(((6-(2-Chloro-3-(3-chloro-2-(4-(((2-hydroxyethyl)amino)methyl)-3-methoxyphenyl)pyridin-4-yl)phenyl)-1-methyl-1H-pyrrolo[2,3-b]pyridin-3-yl)methyl)amino)piperidin-1-yl)ethan-1-one], the EC50 at human PD-L1 is 57.3 nM. For the same compound, the IC50 in assay [1] is 1.66 nM.

Take `COc1cc(-c2nccc(-c3cccc(-c4ccc(CNCC(=O)O)c(OC)n4)c3Cl)c2Cl)cc2c1CN(C[C@H](C)O)CC2` [Compound 229, (S)-((6-(2-chloro-3-(3-chloro-2-(2-(2-hydroxypropyl)-8-methoxy-1,2,3,4-tetrahydroisoquinolin-6-yl)pyridin-4-yl)phenyl)-2-methoxypyridin-3-yl)methyl)glycine]: the EC50 at human PD-L1 amounted to 244 nM. The compound further gave an IC50 in assay [1] of 1.13 nM.

On to `COc1cc(-c2nccc(-c3cccc(-c4ccc5c(CNCCO)cn(C)c5n4)c3Cl)c2Cl)ccc1CNC[C@@H]1CCC(=O)N1` [Compound 97, (S)-5-(((4-(3-chloro-4-(2-chloro-3-(3-(((2-hydroxyethyl)amino)methyl)-1-methyl-1H-pyrrolo[2,3-b]pyridin-6-yl)phenyl)pyridin-2-yl)-2-methoxybenzyl)amino)methyl)pyrrolidin-2-one], for which it took 28.3 nM to reach a half-maximal effect on human PD-L1 (EC50). The compound further came in with a concentration for half-maximal inhibition (IC50) in assay [1] of 0.5 nM.

Turning to `COc1cc(-c2nccc(-c3cccc(-c4ccc(CNC5CCN(C(C)=O)CC5)c(OC)n4)c3Cl)c2F)ccc1CNC1CCN(C(C)=O)CC1` [Example 337, 1-(4-(((6-(3-(2-(4-(((1-Acetylpiperidin-4-yl)amino)methyl)-3-methoxyphenyl)-3-fluoropyridin-4-yl)-2-chlorophenyl)-2-methoxypyridin-3-yl)methyl)amino)piperidin-1-yl)ethan-1-one], on human PD-L1, the EC50 was found to be 62 nM. In assay [1], this compound came in with an IC50 of 0.3 nM.

In turn, `CNCc1ccc(-c2cccc(-c3ccnc(-c4ccc(CNC[C@@H](O)CC(=O)O)c(OC)c4)c3Cl)c2Cl)nc1OC` [Compound 220, (S)-4-((4-(3-chloro-4-(2-chloro-3-(6-methoxy-5-((methylamino)methyl)pyridin-2-yl)phenyl)pyridin-2-yl)-2-methoxybenzyl)amino)-3-hydroxybutanoic acid] yielded an EC50 on human PD-L1 of 76.1 nM. Moreover, the half-maximal inhibitory concentration (IC50) in assay [1] stood at 2.18 nM.

`COc1cc(-c2nccc(-c3cccc(NC(=O)c4ccc(CNCCO)cn4)c3C)c2Cl)ccc1CNCCO` [Example 648, N-(3-(3-Chloro-2-(4-(((2-hydroxyethyl)amino)methyl)-3-methoxyphenyl)pyridin-4-yl)-2-methylphenyl)-5-(((2-hydroxyethyl)amino)methyl)picolinamide]: the EC50 on human PD-L1 came out at 142 nM. This compound also returned an IC50 in assay [1] of 0.05 nM.

Compound `COc1cc(-c2nccc(-c3cccc(-c4ccc5c(CNC6CCOCC6)cn(C)c5n4)c3Cl)c2Cl)ccc1CNC1CCOCC1` [Compound 563, N-((6-(2-Chloro-3-(3-chloro-2-(3-methoxy-4-(((tetrahydro-2H-pyran-4-yl)amino)methyl)phenyl)pyridin-4-yl)phenyl)-1-methyl-1H-pyrrolo[2,3-b]pyridin-3-yl)methyl)tetrahydro-2H-pyran-4-amine] came in with a 50% effective concentration (EC50) at human PD-L1 of 956 nM. The IC50 in assay [1] was 4.07 nM.

Consider `COc1cc(-c2nccc(-c3cccc(-c4ccc(CN5CC6(C5)CN(C(C)=O)C6)c(OC)n4)c3Cl)c2Cl)cnc1CN1CC2(C1)CN(C(C)=O)C2` [Compound 428, 1-(6-((6-(3-(6′-((6-Acetyl-2,6-diazaspiro[3.3]heptan-2-yl)methyl)-3-chloro-5′-methoxy-[2,3′-bipyridin]-4-yl)-2-chlorophenyl)-2-methoxypyridin-3-yl)methyl)-2,6-diazaspiro[3.3]heptan-2-yl)ethan-1-one], for which a half-maximal response at human PD-L1 (EC50) required 51.2 nM. Also, the half-maximal inhibitory concentration (IC50) in assay [1] came out at 0.77 nM.

As to `COc1cc(-c2nccc(-c3cccc4c3CC[C@@H]4Oc3nc(OC)c(CN4CC5(CNC(=O)C5)C4)cc3C(F)(F)F)c2Cl)ccc1CN1CC2(CNC(=O)C2)C1` [Example 292, (S)-2-(4-(3-chloro-4-(1-((6-methoxy-5-((7-oxo-2,6-diazaspiro[3.4]octan-2-yl)methyl)-3-(trifluoromethyl)pyridin-2-yl)oxy)-2,3-dihydro-1H-inden-4-yl)pyridin-2-yl)-2-methoxybenzyl)-2,6-diazaspiro[3.4]octan-7-one], a half-maximal response on human PD-L1 (EC50) required 388 nM. Besides, in assay [1], the half-maximal inhibitory concentration (IC50) turned out to be 4.4 nM.

Compound `COc1cc(-c2ncnc(-c3cccc(-c4ccc(CNC[C@@H]5CCC(=O)N5)c(OC)n4)c3Cl)c2Cl)ccc1CNC[C@@H]1CCC(=O)N1` [Example 543, (S)-5-((((6-(2-chloro-3-(5-chloro-6-(3-methoxy-4-(((((S)-5-oxopyrrolidin-2-yl)methyl)amino)methyl)phenyl)pyrimidin-4-yl)phenyl)-2-methoxypyridin-3-yl)methyl)amino)methyl)pyrrolidin-2-one] came in with a concentration giving a half-maximal response (EC50) on human PD-L1 of 17.5 nM. Further, it took 0.29 nM to reach half-maximal inhibition in assay [1] (IC50).

For `COc1cc(-c2nccc(-c3cccc(-c4ccc(CN5CC(C)(O)C5)c(OC)n4)c3Cl)c2Cl)ccc1CN1CC2(CNC(=O)C2)C1` [Example 518, 2-(4-(3-Chloro-4-(2-chloro-3-(5-((3-hydroxy-3-methylazetidin-1-yl)methyl)-6-methoxypyridin-2-yl)phenyl)pyridin-2-yl)-2-methoxybenzyl)-2,6-diazaspiro[3.4]octan-7-one], the EC50 at human PD-L1 was found to be 9.77 nM. It took 2.42 nM to reach half-maximal inhibition in assay [1] (IC50).

At human PD-L1, `COc1cc(-c2nccc(-c3cccc(NC(=O)c4cn(C)c(=O)n(C)c4=O)c3Cl)c2Cl)ccc1CNC1CCN(C(C)=O)CC1` [Example 656, N-(3-(2-(4-(((1-Acetylpiperidin-4-yl)amino)methyl)-3-methoxyphenyl)-3-chloropyridin-4-yl)-2-chlorophenyl)-1,3-dimethyl-2,4-dioxo-1,2,3,4-tetrahydropyrimidine-5-carboxamide] showed an EC50 of 589 nM. The same compound displayed an IC50 in assay [1] of 0.16 nM.

In the case of `COc1nc(-c2cccc(-c3ccnc(-c4ccc5c(CN6CC7(CNC(=O)C7)C6)nn(C)c5c4)c3Cl)c2Cl)ccc1CNC[C@@H]1CCC(=O)N1` [Example 288, (S)-2-((6-(3-Chloro-4-(2-chloro-3-(6-methoxy-5-((((5-oxopyrrolidin-2-yl)methyl)amino)methyl)pyridin-2-yl)phenyl)pyridin-2-yl)-1-methyl-1H-indazol-3-yl)methyl)-2,6-diazaspiro[3.4]octan-7-one], the 50% effective concentration (EC50) on human PD-L1 is 52.7 nM. 2.33 nM corresponded to half-maximal inhibition in assay [1] (IC50).

On human PD-L1, `COc1cc(-c2nccc(-c3cccc(-c4ccc(CN5CC6(CNC(=O)C6)C5)c(OC)n4)c3Cl)c2Cl)cc2c1CN(CCC(=O)O)CC2` [Example 294, 3-(6-(3-Chloro-4-(2-chloro-3-(6-methoxy-5-((7-oxo-2,6-diazaspiro[3.4]octan-2-yl)methyl)pyridin-2-yl)phenyl)pyridin-2-yl)-8-methoxy-3,4-dihydroisoquinolin-2(1H)-yl)propanoic acid] returned a concentration giving a half-maximal response (EC50) of 73.9 nM. Besides, half-maximal inhibition in assay [1] (IC50) was put at 0.24 nM.

Broadly, the EC50 is the midpoint of the concentration-response curve. Read a high EC50 as lower potency in that assay. What is called IC50 is the point on the concentration scale where inhibition reaches its midpoint.
